# Experimental data taken from patent publication US20190134120A1, “METHODS FOR THE TREATMENT OF BLADDER CANCER” (Viralytics Limited, priority 2013, published 2019).
# Assays:
# [1] = system: late stage melanoma patients; conditions: Phase I, intratumorally administered, cited from earlier work
# [2] = system: VMCUB-1 cells; assay: CVA21 cytotoxicity, VMCUB-1 cells; format: cell-based, Human; conditions: FIG. 2b
# [3] = system: human bladder tumor tissue; assay: Ex vivo infection of human bladder tumour tissue by CVA21 (immunostaining); conditions: 3.875x10^6 TCID50 CVA21; 48 hours post infection
# Protocol: Primary bladder cancer tissue was received from the operating theatre of the Royal Surrey County Hospital UK in a dry pot. The tissue was cut into small pieces of between 2-4 mm and placed in 0.5 ml 10% FCS/DMEM with Pen/Strep and GLUT containing 3.875×10^6 TCID50 of CVA21. The infected tissue was incubated at 37° C., 5% CO2 for 48 hrs. Tissue was then fixed in 10% neutral buffered formalin for 18-24 hours.
# Tissue pieces originating from the same human bladder tumour were either infected with CVA21 or left uninfected. Immunofluorescence and immunostaining for coxsackievirus was performed 48 hours post infection.
# In brief, bladder cancer tissue was fixed using 10% neutral buffered formalin for 18-24 hours. After fixation, the tissue block was embedded in paraffin, and 4 μm sections cut and affixed onto slides. The sections were dried overnight at 37° C., deparaffinized, and rehydrated. Endogenous peroxidase was blocked using methanol/0.3% H202 for 20 min. The sections were then subjected to heat mediated antigen retrieval in a microwave using citrate buffer (10 mM, pH 6.0). Following washing, the slides were blocked with 2.5% horse serum and endogenous biotin blocked using an Avidin/Biotin blocking kit (SP-2001, VectorLabs) according to the manufacturer's instructions. […]
# [4] = format: physicochemical, Human; conditions: 3x10^6 TCID50; 37 C for one hour in healthy donor urine
# Protocol: (§1) Human cancer bladder tissue was disaggregated and primary tumour cells were isolated. These were tested for bladder tumour markers (Cytokeratin 7) (data not shown). Primary tumour cells were infected at varying MOIs and incubated at 37 C for 72 hours then photographed and analysed by MTS ([3-(4,5-dimethylthiazol-2-yl)-5-(3-carboxymethoxyphenyl)-2-(4-sulfophenyl)-2H-tetrazolium, inner salt) assay. (A) CVA21 MOI 3. (B) Uninfected cells. (C) MTS assay. (D) CVA21 (3×10^6 TCID50) was incubated at 37 C for one hour in healthy donor urine. Resulting virus was titrated by TCID50 on SK-MEL-28 cells for 5 days.
# In brief, SK-MEL-28 cells were plated at 1×10^4 cells per well (100 μL) of a 96 well tray in 10% DMEM and incubate at 37° C. o/n. 37.5 ul of stock CVA21 virus (7.75e7 TCID50/ml) was added 462.5 ul of normal health urine or Hanks or PBS or HANKS for 1 hrs at 37° C. After which urine/CVA21 was serially diluted 1:10 in 2% DMEM. The media was removed from the cells and 100 ul of each dilution was added to one of ten wells. The assay was then incubated at 37° C. for 5 days, after which the media was removed from the cells and 100 ul of 0.1% Glutaldehyde (Sigma) in PBS was added. […]. TCID50 is calculated by the Spearman & Kärber algorithm as described in Hierholzer & Killington (1996), Virology Methods Manual, p. […]
# [5] = system: bladder cancer cell line 5637; assay: Synergy between CVA21 and MMC, dose matrix, 5637 cells; format: cell-based, Human; conditions: MMC 0 to 2.8 ug/ml
# Protocol: In brief, 5637/T24/TCCSUP-1 cells were plated at 1×10^4 cells per well (100 μL) of a 96 well tray and incubated at 37° C. for 24 hrs. Mitomycin C was diluted in 10% FCS medium in doubling dilutions from between 2.8 to 0.02 ug/ml for 5637 cells and between 3.36 to 0.03 ug/ml for T24 cells. CVA21 was then diluted between MOI 25-0.196 in doubling dilutions using each dilution of Mitomycin C. The cells were then treated with each dilution of CVA21/Mitomycin C and incubated for 72 hrs. The medium was removed and 100 μl of diluted MTS reagent (Promega) was added. The plates were then incubated for 1-4 hrs and absorbance read at 492 nm.
# [6] = system: T24 cells; assay: Synergy between CVA21 and radiotherapy, T24 cells; format: cell-based, Human
# Protocol: (§2) Combining CVA21 with the radiotherapy has shown exceptional synergy. When 5637 cells were irradiated (4-10 Gy) then 24 hours later exposed to CVA21 (multiplicities of infection 0.961-12.6), clear synergy was seen (FIG. 3a). […] A comprehensive experimental and analytic method was implemented for this work which allows calculation of combination index values at all data points, and therefore identification of areas of high synergy across the whole response surface (Greco et al. 1995) (FIGS. 3b, 3c).
# (§3) In brief, T24/5637 cells were plated at 0.25×10^4/0.5×10^4 cells per well (100 μL) of a 96 well tray and incubated at 37° C. for 24 hrs. Day 2—An extra 100 ul 10% FCS, media was added to the cells. Then they were treated with Rad (Gy 0, 4, 6, 8, 10) on a clinical Varian linear accelerator in St Luke's Cancer Centre, Royal Surrey Hospital UK. Day 2—The plates were returned to the lab and incubated at 37° C. for 24 hrs. Day 3—The medium was removed and 100 ul of CVA21 (MOI 12.5-0.1 in 2% FCS medium) was added and incubated at 37° C. for 72 hrs. Day 6—The medium was removed and 100 μl of fresh 10% FCS medium added and incubated for 24 hrs. Day 7—The medium was removed and 100 μl of diluted MTS reagent (Promega) was added. The plates were then incubated for 1-2 hr and read absorbance at 492 nm. […]
# [7] = system: 5637 cells; assay: Synergy between CVA21 and radiotherapy, 5637 cells; format: cell-based, Human; conditions: 5637 cells irradiated (4-10 Gy)
# Protocol: as §2, §3
# [8] = system: Patient derived bladder tumour cell line; assay: Infection of patient derived primary bladder tumour cells with CVA21; format: cell-based, Human; conditions: varying MOIs; 72 hours; MTS
# Protocol: as §1
substance,measurement,setting,value
Coxsackievirus A21 [CVA21],tolerability,[1]; humans,well tolerated
same,patients with stabilization or reduction in injected tumour volumes,[1]; late stage melanoma,55.55%
same,susceptibility of cell line to CVA21,[2],resistant
same,infectability of ex-vivo tumour tissue,[3],highly infectable
same,stability in human urine,[4],stable
same,interaction of CVA21 with MMC,[5],Synergy
same,interaction of CVA21 with radiation,[6],Synergy between radiation and CVA21 was confirmed
same,interaction of CVA21 with radiation,[7]; 24 hours later CVA21,clear synergy
same,"combination indices, minima","[7]; 24 hours later exposed to CVA21 (MOI 0.961-12.6), dose matrix analysis",approximately 0.4
same,infectability of primary tumour cells,[8],highly infectable
